Assay results as given in patent publication US20130190275A1, “COMBINED THERAPIES OF ANTIPSYCHOTIC DRUGS AND TETRACYCLINES IN THE TREATMENT OF PSYCHIATRIC DISORDERS” (MOR RESEARCH APPLICATIONS LTD., priority 2006, published 2013).

Experiments:
MK801 treated rats = assay: Pre-Pulse Inhibition (PPI) paradigm, MK801 animal model; assay type: in vivo, rat
Experimental: Acoustic Startle Response (ASR) and Pre-Pulse Inhibition (PPI): Both experimental paradigms were performed in a room that was adjacent to the laboratory facilities and the animal stall and that was not used for other experiments. The animals were tested in squad of two with startle chambers counterbalanced across the different experimental groups. Startle response and prepulse inhibition were measured using two ventilated startle chambers (SR-LAB system, San Diego Instruments, San Diego, Calif.). Each chamber consisted of a Plexiglas cylinder resting on a platform inside a sound-attenuated, ventilated chamber. A high-frequency loudspeaker inside the chamber produced both a continuous broadband background noise of 70 dB and the various acoustic stimuli. Movement inside the tube was detected by a piezoelectric accelerometer below the frame. The amplitude of the whole body startle to an acoustic pulse was defined as the average of 100 one-msec accelerometer readings collected from pulse onset. These signals were then digitized and stored by a computer. Sound levels within each test chamber were measured routinely using a sound level meter (Radio Shack) to ensure consistent presentation. The SR-LAB calibration unit was used routinely to ensure consistent stabilimeter sensitivity between test chambers and over time (Swerdlow and Geyer, 1998, Schizophrenia Bulletin, 24(2), 285-301).
Fifteen minutes before the behavioral procedures conducted at the fourth day, the subject was injected i.p. with an 0.1 mg/kg dose of MK801 or saline, for a total volume of 1 ml per kg of body weight. Next, the subjects passed the three behavioral procedures, described in the following paragraphs.
ASR and PPI were measured using two startle chambers, with each chamber consisting of a Plexiglas cylinder resting on a platform inside a sound-attenuated, ventilated chamber (see also materials section). The animals were tested in pairs with startle chambers counterbalanced across the different experimental groups.
PPI of the startle response was used as a measure of sensorimotor gating, with the startle chambers used to assess the ability of prepulse stimuli to block the startle response. […]
Pre-Pulse Inhibition (PPI): Startle magnitude is expressed in all the procedures as arbitrary units. Percent PPI (% PPI) was calculated as the mean startle magnitude to stimulus-alone minus the mean startle magnitude to prepulse-stimulus trials, all divided by the mean stimulus-alone trials, and multiplied by 100. The overall mean % PPI was calculated for the four prepulse intensities (72, […], 80, 84 dB). Results were analyzed by two-way ANOVA with a between-subject measure of ‘group’ (difference the treatment groups) and ‘prepulse intensity’ (72, 76, 80, 84 dB).

[1] = tested on: patients who experience first psychotic episode; assay: CANTAB Intra-extra dimensional set-shifts (IED), adjuvant study; assay type: in vivo, human; conditions: atypical antipsychotic drug+minocycline 200 mg/day vs +placebo; time x group p<0.0001
Experimental: The study was carried out in patients who experience first psychotic episode, and has followed the patient for a total duration of 6 months. As the study examines Minocycline as an adjuvant drug, the sample includes patients receiving one of the following atypical anti-psychotic drugs: Risperdal, Zyprexa, Geodon, Seroquel, and Leponex. […] In addition, the subjects were assessed by a battery of computerized neuropsychological tests (CANTAB—Cambridge Neuropsychological Test Automated Battery), measuring attention, memory, and planning. Minocycline was given as an add-on therapy. Prior to randomization into minocycline/placebo adjuvant treatment, a preliminary (lead-in phase) screening phase of placebo treatment was undertaken: Placebo was given as an adjuvant to all patients for two weeks. […] Randomization was then carried out by the principal investigator. […] Clinical status was evaluated by the aforementioned scales at the onset of the study, every week for the first 6 weeks, and then once a month for the rest of the study period. Cognitive capabilities were assessed by the neuropsychological battery of tests according to the following schedule: upon initiation of the study (referred to as visit 1 in FIGS. 5-8), 3 months (referred to as visit 2 in FIGS. 5-8), and 6 months (referred to as visit 3 in FIGS. 5-8) after the start of the study. […]

[2] = tested on: patients who experience first psychotic episode; assay: CANTAB Spatial Recognition Memory (SRM), adjuvant study; assay type: in vivo, human; conditions: atypical antipsychotic drug+minocycline 200 mg/day vs +placebo; time x group p<0.01
Experimental: The study was carried out in patients who experience first psychotic episode, and has followed the patient for a total duration of 6 months. As the study examines Minocycline as an adjuvant drug, the sample includes patients receiving one of the following atypical anti-psychotic drugs: Risperdal, Zyprexa, Geodon, Seroquel, and Leponex. […] In addition, the subjects were assessed by a battery of computerized neuropsychological tests (CANTAB—Cambridge Neuropsychological Test Automated Battery), measuring attention, memory, and planning. Memory was tested using spatial and pattern recognition and spatial span tasks of the CANTAB. Minocycline was given as an add-on therapy. Prior to randomization into minocycline/placebo adjuvant treatment, a preliminary (lead-in phase) screening phase of placebo treatment was undertaken: Placebo was given as an adjuvant to all patients for two weeks. […] Clinical status was evaluated by the aforementioned scales at the onset of the study, every week for the first 6 weeks, and then once a month for the rest of the study period. Cognitive capabilities were assessed by the neuropsychological battery of tests according to the following schedule: upon initiation of the study (referred to as visit 1 in FIGS. 5-8), 3 months (referred to as visit 2 in FIGS. 5-8), and 6 months (referred to as visit 3 in FIGS. 5-8) after the start of the study. […]

Structure (SMILES): CN(C)c1ccc(O)c2c1C[C@H]1C[C@H]3[C@H](N(C)C)C(O)=C(C(N)=O)C(=O)[C@@]3(O)C(O)=C1C2=O [minocycline]
- percent of PPI (% PPI) (MK801 treated rats; drug+MK801 0.1 mg/kg i.p., minocycline 35 mg/kg x 3 days pretreatment, haloperidol 0.4 mg/kg i.p.): able to reverse the deficits caused by the MK801 treatment
- percent of PPI (% PPI) (MK801 treated rats; minocycline alone (no MK801) vs saline): no statistically significant differences
- IED measures (number of stages completed, total errors adjusted, Pre-ED errors, EDS errors) [1]: improved significantly more than the placebo group on all the IED measures except for the Pre-ED errors measure
- SRM percent of correct responses [2]: kept relatively steady scores
